Measurements reported in US7842695B2, “Substituted pyrazole compounds” (Merck Patent GmbH, priority 2003, dated 2010).
pIC50: −log10 of the molar value.

Legend:
[1] = target: 5-HT2A receptors (UniProt P14842); assay: in-vitro affinity to 5-HT2A receptors, [3H]ketanserine displacement (Example A1); assay type: binding
From the text: The 5-HT2A receptors are exposed both to [^3H]ketanserine (a substance known for its affinity to the receptor) and also to the test compound. The decrease in the affinity of [^3H]ketanserine to the receptor is an indication of the affinity of the test substance to the 5-HT2A receptor.

[2] = target: T1, 5 HT2C receptor (Homo sapiens, UniProt P28335); assay: affinity to the 5 HT2C receptor; assay type: binding
T1 sequence (P28335 33-458): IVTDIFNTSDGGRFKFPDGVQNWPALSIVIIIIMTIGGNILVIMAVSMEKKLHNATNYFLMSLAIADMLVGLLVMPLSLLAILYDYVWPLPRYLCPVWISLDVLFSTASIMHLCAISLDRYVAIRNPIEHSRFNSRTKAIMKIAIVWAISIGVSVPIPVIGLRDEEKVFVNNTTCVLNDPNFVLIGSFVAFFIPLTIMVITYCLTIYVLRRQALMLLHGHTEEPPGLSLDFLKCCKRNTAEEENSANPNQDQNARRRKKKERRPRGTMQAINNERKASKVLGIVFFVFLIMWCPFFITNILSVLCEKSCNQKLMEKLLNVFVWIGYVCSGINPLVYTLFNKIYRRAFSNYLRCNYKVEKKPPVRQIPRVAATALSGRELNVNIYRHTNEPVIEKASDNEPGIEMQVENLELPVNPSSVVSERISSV

| SMILES | pIC50 [1] | pIC50 [2] |
| --- | --- | --- |
| Cc1ccoc1-c1c(CN2CCN(C)CC2)cnn1-c1ccc(-c2ccc(F)cc2)cc1 [Example 560, 1-[1-(4′-Fluorobiphenyl-4-yl)-5-(3-methyl-2-furanyl)-1H-pyrazol-4-ylmethyl]-4-methylpiperazine] | 8.05 | 6.11 |
| Fc1ccc(-c2ccc(-n3ncc(CN4CCC(COc5ccccn5)CC4)c3-c3ccco3)cc2)cc1 [Example 561, 2-{1-[1-(4′-Fluorobiphenyl-4-yl)-5-furan-2-yl-1H-pyrazol-4-ylmethyl]piperidin-4-ylmethoxy}pyridine] | 8.05 | 6.00 |
| OC1CCN(Cc2cnn(-c3ccc(-c4cccc(F)c4)cc3)c2-c2ccco2)C1 (stereo not shown) [Example 562, 1-[1-(3′-Fluorobiphenyl-4-yl)-5-furan-2-yl-1H-pyrazol-4-ylmethyl]pyrrolidin-3-ol] | 8.04 | 6.28 |
| CN1CCN(Cc2cnn(-c3ccc(-c4ccc5c(c4)OCO5)cc3)c2-c2ccccc2F)CC1 [Example 563, 1-[1-(4-Benzo-1,3-dioxol-5-ylphenyl)-5-(2-fluorophenyl)-1H-pyrazol-4-ylmethyl]-4-methylpiperazine] | 8.00 | 6.29 |
| COc1ccc(-c2ccc(-n3ncc(CN4CCC(O)C4)c3-c3ccco3)cc2)cc1 (stereo not shown) [Example 564, 1-[5-Furan-2-yl-1-(4′-methoxybiphenyl-4-yl)-1H-pyrazol-4-ylmethyl]pyrrolidin-3-ol] | 8.00 | 6.20 |
| c1coc(-c2c(CN3CCN(C4CCCC4)CC3)cnn2-c2ccc(-c3ccc4c(c3)OCO4)cc2)c1 [Example 569, 1-[1-(4-Benzo-1,3-dioxol-5-ylphenyl)-5-furan-2-yl-1H-pyrazol-4-ylmethyl]-4-cyclopentylpiperazine] | 7.92 | 6.00 |
| CCN1CCN(Cc2cnn(-c3ccc(-c4cccc(F)c4)cc3)c2-c2ccco2)CC1 [Example 570, 1-Ethyl-4-[1-(3′-fluorobiphenyl-4-yl)-5-furan-2-yl-1H-pyrazol-4-ylmethyl]piperazine] | 7.92 | 6.30 |
| COc1ccc(-c2ccc(-n3ncc(CCN4CCC(O)C4)c3-c3ccco3)cc2)cc1 (stereo not shown) [Example 571, 1-{2-[5-Furan-2-yl-1-(4′-methoxybiphenyl-4-yl)-1H-pyrazol-4-yl]ethyl}pyrrolidin-3-ol] | 7.92 | 6.10 |
| CN1CCN(Cc2cnn(-c3ccc(-c4ccsc4)cc3)c2-c2ccccc2F)CC1 [Example 574, 1-[5-(2-Fluorophenyl)-1-(4-thiophen-3-ylphenyl)-1H-pyrazol-4-ylmethyl]-4-methylpiperazine] | 7.85 | 6.28 |
| CN(C)Cc1cnn(-c2ccc(-c3ccc(F)cc3)cc2)c1-c1ccoc1 [Example 576, [1-(4′-Fluorobiphenyl-4-yl)-5-furan-3-yl-1H-pyrazol-4-ylmethyl]dimethylamine] | 7.80 | 6.74 |
| CCN1CCN(Cc2cnn(-c3ccc(-c4ccc(F)cc4)cn3)c2-c2ccco2)CC1 [Example 583, 1-Ethyl-4-{1-[5-(4-fluorophenyl)pyridin-2-yl]-5-furan-2-yl-1H-pyrazol-4-ylmethyl}piperazine] | 7.74 | 6.00 |
| COc1ccc(-c2ccc(-n3ncc(CN4CCN(C)CC4)c3-c3ccccc3F)cc2)cc1F [Example 585, 1-[1-(3′-Fluoro-4′-methoxybiphenyl-4-yl)-5-(2-fluorophenyl)-1H-pyrazol-4-ylmethyl]-4-methylpiperazine] | 7.72 | 6.12 |
| CN1CCN(Cc2cnn(-c3ccc(-c4ccc(F)cc4)cc3)c2-c2ccoc2)CC1 [Example 586, 1-[1-(4′-Fluorobiphenyl-4-yl)-5-furan-3-yl-1H-pyrazol-4-ylmethyl]-4-methylpiperazine] | 7.72 | 6.00 |
| Fc1ccccc1-c1c(CN2CCNCC2)cnn1-c1ccc(C(F)(F)F)cn1 [Example 588, 1-[5-(2-Fluorophenyl)-1-(5-trifluoromethylpyridin-2-yl)-1H-pyrazol-4-ylmethyl]piperazine] | 7.70 | 6.00 |
